According to patent publication US8378117B2 (priority 2005, dated 2013):
Like-named read-outs stand apart in the source and are kept apart here.

Key:
CB1 receptor [1] = target: T1, CB1 receptor (Homo sapiens, UniProt P21554); assay: cell-based
T1 construct: expressed in transfected cells
Description: The CB1 and CB2 receptors are G-protein coupled receptors (GPCR), which influence cell function via the Gi-protein. These receptors modulate the activity of intracellular adenylate cyclase, which in turn produces the intracellular signal messenger cyclic-AMP (cAMP).
At baseline, or during non-ligand bound conditions, these receptors are constitutively active and tonically suppress adenylate cyclase activity. The binding of an agonist causes further receptor activation and produces additional suppression of adenylate cyclase activity. The binding of an inverse agonist inhibits the constitutive activity of the receptors and results in an increase in adenylate cyclase activity.
By monitoring intracellular adenylate cyclase activity, the ability of compounds to act as agonists or inverse agonists can be determined.
Test compounds were evaluated in SK-N-MC cells which, using standard transfection procedures, were stably transfected with human cDNA for pcDNA3-CRE β-gal and pcDNA3 CB1 receptor (human) or pcDNA3 CB2 receptor (human). By expressing CRE β-gal, the cells produced β-galactosidase in response to CRE promoter activation by cAMP. Cells expressing CRE β-gal and either the human CB1 or CB2 receptor will produce less β-galactosidase when treated with a CB1/CB2 agonist and will produce more β-galactosidase when treated with a CB1/CB2 inverse agonist.
The cells were grown in 96-well plates under standard cell culture conditions at 37° C. in a 5% CO2 atmosphere and culture media (wherein the media was supplemented with 2 mM L-glutamine, […] sodium pyruvate, 10% FBS (fetal bovine serum) and antibiotics).
The change in forskolin induced β-galactosidase activity was determined by setting a vehicle treated cell's activity value at 100% and expressing the β-galactosidase activity measured in a corresponding compound treated cell as a percent of the vehicle treated cell activity.
The EC50 value for functional activity for compounds tested was calculated by linear regression and was obtained from studies in which varying compound concentrations were used.
Where an EC50 value was not obtained for a test compound, the value shown (in %) represents change in functional activity and was obtained from a study in which one compound concentration was used.

CB1 receptor [2] = target: T1, CB1 receptor; assay: Binding assay for CB1 agonists or inverse agonists (SK-N-MC membranes, [3H]-CP-55,940); settings: for CB1 receptor binding average percent inhibition: value shown is an average percent inhibition (footnote 5), concentration not given; for CB1 receptor binding percent inhibition: test concentration not stated
Procedure, shortened: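 Membranes from SK-N-MC cells stably expressing human CB1 incubated with compound and [3H]-CP-55,940 ([…]) for 90 min at 30° C in Tris-HCl pH 7.5, MgCl2, EDTA, fatty-acid-free BSA. Non-specific binding defined with 10 uM WIN 55,212; filtration, scintillation count; IC50 by linear regression.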

CB2 receptor = target: T2, CB2 receptor (Homo sapiens, UniProt P34972); assay: Binding assay for CB2 agonists or inverse agonists (SK-N-MC membranes, [3H]-CP-55,940); settings: for IC50: Cannabinoid CB2 Receptor Binding IC50, calculated by linear regression from percent inhibition at various test concentrations; for CB2 receptor binding percent inhibition: test concentration not stated
T2 construct: expressed in transfected cells
Procedure, shortened: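 Membranes from SK-N-MC cells stably expressing human CB2 were incubated with radioligand and test compounds for 90 min at 30 °C in Tris-HCl buffer, pH 7.5, with MgCl2, EDTA and fatty-acid-free BSA. Filter-bound radioactivity was counted; IC50 was derived by linear regression of percent inhibition.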

[3] = Cannabinoid CB1 Receptor Binding IC50, calculated by linear regression from percent inhibition at various test concentrations
[4] = CB1 Receptor Functional Inverse Agonist EC50, forskolin induced β-galactosidase activity, SK-N-MC cells
[5] = forskolin induced β-galactosidase activity, SK-N-MC cells, read-out: CB1 Receptor Functional Inverse Agonist EC50
[6] = read-out: CB1 receptor binding percent inhibition, test concentration 1 μM (footnote 1)
[7] = read-out: CB1 receptor binding percent inhibition, test concentration 0.5 μM (footnote 10)
[8] = SK-N-MC cells, forskolin induced β-galactosidase activity, read-out: CB1 Receptor Functional Agonist EC50
[9] = read-out: CB1 receptor binding percent inhibition

T1 sequence (P21554 whole entry): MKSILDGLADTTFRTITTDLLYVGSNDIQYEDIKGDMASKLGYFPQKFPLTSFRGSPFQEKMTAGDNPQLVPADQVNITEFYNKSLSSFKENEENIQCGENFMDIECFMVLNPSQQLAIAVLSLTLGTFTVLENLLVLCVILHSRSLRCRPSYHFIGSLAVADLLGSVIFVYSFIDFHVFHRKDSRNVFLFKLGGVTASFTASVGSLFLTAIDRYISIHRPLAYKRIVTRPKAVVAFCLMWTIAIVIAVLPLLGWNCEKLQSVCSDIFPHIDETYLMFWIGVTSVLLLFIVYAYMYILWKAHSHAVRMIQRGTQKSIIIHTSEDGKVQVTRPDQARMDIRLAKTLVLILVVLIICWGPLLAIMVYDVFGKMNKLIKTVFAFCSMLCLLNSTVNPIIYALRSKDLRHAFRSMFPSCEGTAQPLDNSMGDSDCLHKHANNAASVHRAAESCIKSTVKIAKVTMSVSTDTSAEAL
T2 sequence (P34972 whole entry): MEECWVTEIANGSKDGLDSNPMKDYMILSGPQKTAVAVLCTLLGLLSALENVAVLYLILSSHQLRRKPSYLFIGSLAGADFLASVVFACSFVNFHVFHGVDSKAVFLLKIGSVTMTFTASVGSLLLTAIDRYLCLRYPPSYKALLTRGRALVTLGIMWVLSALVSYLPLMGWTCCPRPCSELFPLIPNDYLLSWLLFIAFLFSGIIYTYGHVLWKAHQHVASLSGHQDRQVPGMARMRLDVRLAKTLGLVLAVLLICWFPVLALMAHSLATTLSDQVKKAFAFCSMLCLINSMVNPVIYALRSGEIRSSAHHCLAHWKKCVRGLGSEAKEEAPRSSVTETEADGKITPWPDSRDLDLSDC

| SMILES | IC50 (CB1 receptor [2]; [3]) [nM] | EC50 (CB1 receptor [1]; [4]) [nM] | CB2 receptor binding percent inhibition (CB2 receptor) [%] | inhibition at 1 µM (CB1 receptor [2]; [6]) [%] | further results |
| --- | --- | --- | --- | --- | --- |
| COC(=O)[C@@H](Cc1ccc(O)cc1)NC(=O)c1nn(C2CCCCC2)c2c1CCCCC2Cc1ccc(F)cc1 (stereo partly drawn) [Cpd 83, (2R)-2-{[1-cyclohexyl-8-(4-fluoro-benzyl)-1,4,5,6,7,8-hexahydro-cycloheptapyrazole-3-carbonyl]-amino}-3-(4-hydroxy-phenyl)-propionic acid methyl ester] | 100 |  |  |  | EC50 (CB1 receptor [1]; CB1 Receptor Functional Agonist EC50, SK-N-MC cells, forskolin induced β-galactosidase activity): 1700 nM; CB1 receptor binding average percent inhibition (CB1 receptor [2]): 90%; IC50 (CB2 receptor): 10 nM; CB2 receptor binding average percent inhibition (CB2 receptor; value shown is an average percent inhibition (footnote 5), concentration not given): 98% |
| O=C(NN1CCCCC1)c1nn(-c2ccc(Cl)cc2Cl)c2c1CCCCC2Cc1cccc(F)c1 (stereo not drawn) [Cpd 84, 1-(2,4-dichloro-phenyl)-8-(3-fluoro-benzyl)-1,4,5,6,7,8-hexahydro-cycloheptapyrazole-3-carboxylic acid piperidin-1-ylamide] | 700 | 100 | 11 |  | CB1 receptor binding average percent inhibition (CB1 receptor [2]): 67% |
| O=C(NN1CCCCC1)c1nn(-c2ccc(Cl)cc2Cl)c2c1CCCCC2Cc1ccc(F)cc1 (stereo not drawn) [Cpd 85, 1-(2,4-dichloro-phenyl)-8-(4-fluoro-benzyl)-1,4,5,6,7,8-hexahydro-cycloheptapyrazole-3-carboxylic acid piperidin-1-ylamide] |  |  | 5 |  | EC50 (CB1 receptor [1]; [5]): 300 nM; CB1 receptor binding average percent inhibition (CB1 receptor [2]): ^(5)39% |
| O=C(NN1CCOCC1)c1nn(-c2ccc(Cl)cc2Cl)c2c1CCCCC2Cc1cccc(F)c1 (stereo not drawn) [Cpd 91, 1-(2,4-dichloro-phenyl)-8-(3-fluoro-benzyl)-1,4,5,6,7,8-hexahydro-cycloheptapyrazole-3-carboxylic acid morpholin-4-ylamide] | 300 | 70 | 0 | 68 |  |
| CC12CCC(C1)C(C)(C)[C@H]2NC(=O)c1nn(-c2ccc(F)cc2F)c2c1CCCCC2Cc1cccc(F)c1 (stereo partly drawn) [Cpd 92, 1-(2,4-difluoro-phenyl)-8-(3-fluoro-benzyl)-1,4,5,6,7,8-hexahydro-cycloheptapyrazole-3-carboxylic acid [(2S)-1,3,3-trimethyl-bicyclo[2.2.1]hept-2-yl]-amide] | 100 | 90 |  | 86 | IC50 (CB2 receptor): 200 nM; inhibition at 1 µM (CB2 receptor; read-out: CB2 receptor binding percent inhibition, test concentration 1 μM (footnote 1)): 82% |
| C[C@H](NS(=O)(=O)/C=C/c1nn(-c2ccc(F)cc2F)c2c1CCCCC2Cc1cccc(F)c1)c1ccccc1 (stereo partly drawn) [Cpd 93, (2E)-2-[1-(2,4-difluoro-phenyl)-8-(3-fluoro-benzyl)-1,4,5,6,7,8-hexahydro-cycloheptapyrazol-3-yl]-ethenesulfonic acid [(1S)-1-phenyl-ethyl]-amide] | 400 | 50 | 58 | 70 |  |
| C[C@H](NS(=O)(=O)/C=C/c1nn(-c2ccc(F)cc2F)c2c1CCCCC2Cc1cccc(F)c1)C1CCCCC1 (stereo partly drawn) [Cpd 94, (2E)-2-[1-(2,4-difluoro-phenyl)-8-(3-fluoro-benzyl)-1,4,5,6,7,8-hexahydro-cycloheptapyrazol-3-yl]-ethenesulfonic acid [(1S)-1-cyclohexyl-ethyl]-amide] |  |  | 1 | 38 | EC50 (CB1 receptor [1]; [5]): 200 nM |
| CCOC(=O)[C@H]1C2C=CC(C2)[C@H]1NC(=O)c1nn(-c2ccc(F)cc2F)c2c1CCCCC2Cc1cccc(F)c1 (stereo partly drawn) [Cpd 99, (2S,3R)-3-{[1-(2,4-difluoro-phenyl)-8-(3-fluoro-benzyl)-1,4,5,6,7,8-hexahydro-cycloheptapyrazole-3-carbonyl]-amino}-bicyclo[2.2.1]hept-5-ene-2-carboxylic acid ethyl ester] |  |  | 24 | 17 | EC50 (CB1 receptor [1]; [5]): 200 nM |
| COC(=O)[C@@H](Cc1ccc(O)cc1)NC(=O)c1nn(-c2ccc(Cl)cc2Cl)c2c1CCCCC2Cc1cccc(Cl)c1 (stereo partly drawn) [Cpd 102, (2R)-2-{[8-(3-chloro-benzyl)-1-(2,4-dichloro-phenyl)-1,4,5,6,7,8-hexahydro-cycloheptapyrazole-3-carbonyl]-amino}-3-(4-hydroxy-phenyl)-propionic acid methyl ester] | 600 | 70 | 59 | 77 | inhibition at 0.5 µM (CB1 receptor [2]; [7]): 55% |
| C[C@H](NS(=O)(=O)/C=C/c1nn(C)c2c1CCCCC2Cc1cccc(F)c1)c1ccccc1 (stereo partly drawn) [Cpd 104, (2E)-2-[8-(3-fluoro-benzyl)-1-methyl-1,4,5,6,7,8-hexahydro-cycloheptapyrazol-3-yl]-ethenesulfonic acid [(1S)-1-phenyl-ethyl]-amide] |  | 100 | 93 | 19 |  |
| C[C@H](NS(=O)(=O)/C=C/c1nn(-c2ccc(F)cc2F)c2c1CCCCC2Cc1ccc(F)cc1)c1ccccc1 (stereo partly drawn) [Cpd 107, (2E)-2-[1-(2,4-difluoro-phenyl)-8-(4-fluoro-benzyl)-1,4,5,6,7,8-hexahydro-cycloheptapyrazol-3-yl]-ethenesulfonic acid [(1S)-1-phenyl-ethyl]-amide] |  |  | 64 | 72 | EC50 (CB1 receptor [1]; [8]): 19800 nM; IC50 (CB1 receptor [2]; calculated by linear regression from percent inhibition at various test concentrations, read-out: Cannabinoid CB1 Receptor Binding IC50): 300 nM; inhibition at 0.5 µM (CB1 receptor [2]; [7]): 59% |
| CCOC(=O)[C@@H]1C2CCC(C2)[C@@H]1NC(=O)c1nn(-c2ccc(F)cc2F)c2c1CCCCC2Cc1ccc(F)cc1 (stereo partly drawn) [Cpd 110, (2R,3S)-3-{[1-(2,4-difluoro-phenyl)-8-(4-fluoro-benzyl)-1,4,5,6,7,8-hexahydro-cycloheptapyrazole-3-carbonyl]-amino}-bicyclo[2.2.1]heptane-2-carboxylic acid ethyl ester] |  | 100 | 59 |  | inhibition at 0.5 µM (CB1 receptor [2]; [9]): 48%; inhibition at 1 µM (CB1 receptor [2]; [9]): 63%; CB1 receptor binding percent inhibition (CB1 receptor [2]): 56% |
| CCOC(=O)[C@@H]1C2CCC(C2)[C@@H]1NC(=O)c1nn(-c2ccc(F)cc2F)c2c1CCCCC2Cc1cccc(F)c1 (stereo partly drawn) [Cpd 111, (2R,3S)-3-{[1-(2,4-difluoro-phenyl)-8-(3-fluoro-benzyl)-1,4,5,6,7,8-hexahydro-cycloheptapyrazole-3-carbonyl]-amino}-bicyclo[2.2.1]heptane-2-carboxylic acid ethyl ester] |  | 90 | 65 | 62 | inhibition at 0.5 µM (CB1 receptor [2]; [7]): 45%; CB1 receptor binding percent inhibition (CB1 receptor [2]): 54% |
| O=C(NN1CCOCC1)c1nn(-c2ccc(F)cc2F)c2c1CCCCC2Cc1cccc(F)c1 (stereo not drawn) [Cpd 116, 1-(2,4-difluoro-phenyl)-8-(3-fluoro-benzyl)-1,4,5,6,7,8-hexahydro-cycloheptapyrazole-3-carboxylic acid morpholin-4-ylamide] |  |  | 24 | 14 | EC50 (CB1 receptor [1]; [8]): 300 nM |
| O=C(NN1CCOCC1)c1nn(-c2ccc(Cl)cc2Cl)c2c1CCCCC2Cc1cccc(Cl)c1 (stereo not drawn) [Cpd 117, 8-(3-chloro-benzyl)-1-(2,4-dichloro-phenyl)-1,4,5,6,7,8-hexahydro-cycloheptapyrazole-3-carboxylic acid morpholin-4-ylamide] |  |  | 22 | 44 | EC50 (CB1 receptor [1]; [5]): 300 nM |
| O=C(c1nn(-c2ccc(F)cc2F)c2c1CCCCC2Cc1cccc(F)c1)N1CCOCC1 (stereo not drawn) [Cpd 118, [1-(2,4-difluoro-phenyl)-8-(3-fluoro-benzyl)-1,4,5,6,7,8-hexahydro-cycloheptapyrazol-3-yl]-morpholin-4-yl-methanone] |  | 100 | 31 |  | inhibition at 1 µM (CB1 receptor [2]; [9]): 4% |
